# Laboratory results published in patent publication US20260053932A1, “COMPOUNDS AND METHODS FOR THE TARGETED DEGRADATION OF ANDROGEN RECEPTOR AND ASSOCIATED METHODS OF USE” (Arvinas Operations, Inc., priority 2020, published 2026).
# System: androgen receptor (AR) in LNCaP and/or VCaP cells
# Assay: Androgen Receptor ELISA assay (AR degradation)
# Format: cell-based
# Settings: degradation of AR ELISA in LNCaP and/or VCaP cells; Table 2C; read-out: DC50 Code*
# Method in brief: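 VCaP cells grown ≥3 days, then treated 5 h with compound in media containing 1 nM R1881 (10× stock). Cells lysed and AR quantified by sandwich ELISA (mouse AR detection Ab, HRP anti-mouse, TMB). DC50 and Dmax derived from AR degradation.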
smiles,measurement,value
"COc1cc(O[C@H]2C[C@H](N(CC3CCN(c4ncc(C(=O)N[C@H]5C(C)(C)[C@H](Oc6cc(C)c(C#N)c(C)c6)C5(C)C)cn4)CC3)C(C)=O)C2)cc2c1C(=O)N(C1CCC(=O)NC1=O)C2=O (some centres unmarked) [compound 81, N-((1r,3r)-3-(4-cyano-3,5-dimethylphenoxy)-2,2,4,4-tetramethylcyclobutyl)-2-(4-((N-((1r,3r)-3-((2-(2,6-dioxopiperidin-3-yl)-7-methoxy-1,3-dioxoisoindolin-5-yl)oxy)cyclobutyl)acetamido)methyl)piperidin-1-yl)pyrimidine-5-carboxamide]",DC50,< 1 nM
"Cc1cc(O[C@H]2C(C)(C)[C@H](NC(=O)c3cnc(N4CC(CN[C@H]5C[C@H](Oc6ccc7c(c6)C(=O)N(C6CCC(=O)NC6=O)C7=O)C5)C4)nc3)C2(C)C)cc(C)c1C#N (some centres unmarked) [compound 82, N-((1r,3r)-3-(4-cyano-3,5-dimethylphenoxy)-2,2,4,4-tetramethylcyclobutyl)-2-(3-((((1r,3r)-3-((2-(2,6-dioxopiperidin-3-yl)-1,3-dioxoisoindolin-5-yl)oxy)cyclobutyl)amino)methyl)azetidin-1-yl)pyrimidine-5-carboxamide]",DC50,< 1 nM
"CCN(CC1CCN(c2ncc(C(=O)N[C@H]3C(C)(C)[C@H](Oc4cc(C)c(C#N)c(C)c4)C3(C)C)cn2)CC1)[C@H]1C[C@H](Oc2ccc3c(c2)C(=O)N(C2CCC(=O)NC2=O)C3=O)C1 (some centres unmarked) [compound 83, N-((1r,3r)-3-(4-cyano-3,5-dimethylphenoxy)-2,2,4,4-tetramethylcyclobutyl)-2-(4-((((1r,3r)-3-((2-(2,6-dioxopiperidin-3-yl)-1,3-dioxoisoindolin-5-yl)oxy)cyclobutyl)(ethyl)amino)methyl)piperidin-1-yl)pyrimidine-5-carboxamide]",DC50,< 1 nM
"CC(C)N(CC1CCN(c2ncc(C(=O)N[C@H]3C(C)(C)[C@H](Oc4ccc(C#N)c(Cl)c4)C3(C)C)cn2)CC1)[C@H]1CC[C@H](Oc2ccc3c(c2)C(=O)N(C2CCC(=O)NC2=O)C3=O)CC1 (some centres unmarked) [compound 84, N-((1r,3r)-3-(3-chloro-4-cyanophenoxy)-2,2,4,4-tetramethylcyclobutyl)-2-(4-((((1r,4r)-4-((2-(2,6-dioxopiperidin-3-yl)-1,3-dioxoisoindolin-5-yl)oxy)cyclohexyl) (isopropyl)amino)methyl)piperidin-1-yl)pyrimidine-5-carboxamide]",DC50,< 1 nM
"Cc1cc(O[C@H]2C(C)(C)[C@H](NC(=O)c3cnc(N4CCC(CCN5CC(Oc6ccc7c(c6)C(=O)N(C6CCC(=O)NC6=O)C7=O)C5)CC4)nc3)C2(C)C)cc(C)c1C#N (some centres unmarked) [compound 85, N-((1r,3r)-3-(4-cyano-3,5-dimethylphenoxy)-2,2,4,4-tetramethylcyclobutyl)-2-(4-(2-(3-((2-(2,6-dioxopiperidin-3-yl)-1,3-dioxoisoindolin-5-yl)oxy)azetidin-1-yl)ethyl)piperidin-1-yl)pyrimidine-5-carboxamide]",DC50,< 1 nM
"Cc1cc(O[C@H]2C(C)(C)[C@H](NC(=O)c3cnc(N4CCC(CN(C)[C@H]5C[C@H](Oc6ccc7c(c6)C(=O)N(C6CCC(=O)NC6=O)C7=O)C5)CC4)nc3)C2(C)C)cc(C)c1C#N (some centres unmarked) [compound 86, N-((1r,3r)-3-(4-cyano-3,5-dimethylphenoxy)-2,2,4,4-tetramethylcyclobutyl)-2-(4-((((1r,3r)-3-((2-(2,6-dioxopiperidin-3-yl)-1,3-dioxoisoindolin-5-yl)oxy)cyclobutyl) (methyl)amino)methyl)piperidin-1-yl)pyrimidine-5-carboxamide]",DC50,< 1 nM
"CC(C)N(CC1CC2(C1)CN(c1ncc(C(=O)N[C@H]3C(C)(C)[C@H](Oc4ccc(C#N)c(Cl)c4)C3(C)C)cn1)C2)[C@H]1C[C@H](Oc2ccc3c(c2)C(=O)N(C2CCC(=O)NC2=O)C3=O)C1 (some centres unmarked) [compound 87, N-((1r,3r)-3-(3-chloro-4-cyanophenoxy)-2,2,4,4-tetramethylcyclobutyl)-2-(6-((((1r,3r)-3-((2-(2,6-dioxopiperidin-3-yl)-1,3-dioxoisoindolin-5-yl)oxy)cyclobutyl) (isopropyl)amino)methyl)-2-azaspiro[3.3]heptan-2-yl)pyrimidine-5-carboxamide]",DC50,< 1 nM
"Cc1cc(O[C@H]2C(C)(C)[C@H](NC(=O)c3cnc(N4CCC(CN(C(C)C)[C@H]5C[C@H](Oc6cccc7c6C(=O)N(C6CCC(=O)NC6=O)C7=O)C5)CC4)nc3)C2(C)C)cc(C)c1C#N (some centres unmarked) [compound 88, N-((1r,3r)-3-(4-cyano-3,5-dimethylphenoxy)-2,2,4,4-tetramethylcyclobutyl)-2-(4-((((1r,3r)-3-((2-(2,6-dioxopiperidin-3-yl)-1,3-dioxoisoindolin-4-yl)oxy)cyclobutyl) (isopropyl)amino)methyl)piperidin-1-yl)pyrimidine-5-carboxamide]",DC50,< 1 nM
"COCCOCCN(CC1CCN(c2ncc(C(=O)N[C@H]3C(C)(C)[C@H](Oc4cc(C)c(C#N)c(C)c4)C3(C)C)cn2)CC1)[C@H]1C[C@H](Oc2ccc3c(c2)C(=O)N(C2CCC(=O)NC2=O)C3=O)C1 (some centres unmarked) [compound 89, N-((1r,3r)-3-(4-cyano-3,5-dimethylphenoxy)-2,2,4,4-tetramethylcyclobutyl)-2-(4-((((1r,3r)-3-((2-(2,6-dioxopiperidin-3-yl)-1,3-dioxoisoindolin-5-yl)oxy)cyclobutyl)(2-(2-methoxyethoxy)ethyl)amino)methyl)piperidin-1-yl)pyrimidine-5-carboxamide]",DC50,< 1 nM
"Cc1cc(O[C@H]2C(C)(C)[C@H](NC(=O)c3cnc(N4CCC(CN(CCN5CCOCC5)[C@H]5C[C@H](Oc6ccc7c(c6)C(=O)N(C6CCC(=O)NC6=O)C7=O)C5)CC4)nc3)C2(C)C)cc(C)c1C#N (some centres unmarked) [compound 90, N-((1r,3r)-3-(4-cyano-3,5-dimethylphenoxy)-2,2,4,4-tetramethylcyclobutyl)-2-(4-((((1r,3r)-3-((2-(2,6-dioxopiperidin-3-yl)-1,3-dioxoisoindolin-5-yl)oxy)cyclobutyl)(2-morpholinoethyl)amino)methyl)piperidin-1-yl)pyrimidine-5-carboxamide]",DC50,< 1 nM
"COCCN(CC1CCN(c2ncc(C(=O)N[C@H]3C(C)(C)[C@H](Oc4cc(C)c(C#N)c(C)c4)C3(C)C)cn2)CC1)[C@H]1C[C@H](Oc2ccc3c(c2)C(=O)N(C2CCC(=O)NC2=O)C3=O)C1 (some centres unmarked) [compound 91, N-((1r,3r)-3-(4-cyano-3,5-dimethylphenoxy)-2,2,4,4-tetramethylcyclobutyl)-2-(4-((((1r,3r)-3-((2-(2,6-dioxopiperidin-3-yl)-1,3-dioxoisoindolin-5-yl)oxy)cyclobutyl)(2-methoxyethyl)amino)methyl)piperidin-1-yl)pyrimidine-5-carboxamide]",DC50,< 1 nM
"CC(C)N(C[C@H]1C2CN(c3ncc(C(=O)N[C@H]4C(C)(C)[C@H](Oc5ccc(C#N)c(Cl)c5)C4(C)C)cn3)C[C@H]21)[C@H]1C[C@H](Oc2ccc3c(c2)C(=O)N(C2CCC(=O)NC2=O)C3=O)C1 (stereo partly drawn) [compound 92, N-((1r,3S)-3-(3-chloro-4-cyanophenoxy)-2,2,4,4-tetramethylcyclobutyl)-2-((1S,5S)-6-((((1r,3S)-3-((2-(2,6-dioxopiperidin-3-yl)-1,3-dioxoisoindolin-5-yl)oxy)cyclobutyl) (isopropyl)amino)methyl)-3-azabicyclo[3.1.0]hexan-3-yl)pyrimidine-5-carboxamide]",DC50,< 1 nM
"COc1cc(O[C@H]2C(C)(C)[C@H](NC(=O)c3cnc(N4CCC(CN5CC(Oc6ccc7c(c6)C(=O)N(C6CCC(=O)NC6=O)C7=O)C5)CC4)cn3)C2(C)C)ccc1C#N (some centres unmarked) [compound 93, N-((1r,3r)-3-(4-cyano-3-methoxyphenoxy)-2,2,4,4-tetramethylcyclobutyl)-5-(4-((3-((2-(2,6-dioxopiperidin-3-yl)-1,3-dioxoisoindolin-5-yl)oxy)azetidin-1-yl)methyl)piperidin-1-yl)pyrazine-2-carboxamide]",DC50,< 1 nM
"COCCN(CC1CCN(c2ccc(C(=O)N[C@H]3C(C)(C)[C@H](Oc4ccc(C#N)c(OC)c4)C3(C)C)cc2)CC1)[C@H]1C[C@H](Oc2cc(OC)c3c(c2)C(=O)N(C2CCC(=O)NC2=O)C3=O)C1 (some centres unmarked) [compound 94, N-((1r,3r)-3-(4-cyano-3-methoxyphenoxy)-2,2,4,4-tetramethylcyclobutyl)-4-(4-((((1r,3r)-3-((2-(2,6-dioxopiperidin-3-yl)-7-methoxy-1,3-dioxoisoindolin-5-yl)oxy)cyclobutyl)(2-methoxyethyl)amino)methyl)piperidin-1-yl)benzamide]",DC50,< 1 nM
"CC(C)N(CC1CCN(c2ncc(C(=O)N[C@H]3C(C)(C)[C@H](Oc4ccc(C#N)c(Cl)c4)C3(C)C)cn2)CC1)[C@H]1C[C@H](Oc2ccc3c(c2)C(=O)N(C2CCC(=O)NC2=O)C3)C1 (some centres unmarked) [compound 95, N-((1r,3r)-3-(3-chloro-4-cyanophenoxy)-2,2,4,4-tetramethylcyclobutyl)-2-(4-((((1r,3r)-3-((2-(2,6-dioxopiperidin-3-yl)-3-oxoisoindolin-5-yl)oxy)cyclobutyl) (isopropyl)amino)methyl)piperidin-1-yl)pyrimidine-5-carboxamide]",DC50,< 1 nM
"COCCN(CC1CCN(c2ccc(C(=O)N[C@H]3C(C)(C)[C@H](Oc4cc(C)c(C#N)c(C)c4)C3(C)C)cc2)CC1)[C@H]1C[C@H](Oc2ccc3c(c2)C(=O)N(C2CCC(=O)NC2=O)C3=O)C1 (some centres unmarked) [compound 96, N-((1r,3r)-3-(4-cyano-3,5-dimethylphenoxy)-2,2,4,4-tetramethylcyclobutyl)-4-(4-((((1r,3r)-3-((2-(2,6-dioxopiperidin-3-yl)-1,3-dioxoisoindolin-5-yl)oxy)cyclobutyl)(2-methoxyethyl)amino)methyl)piperidin-1-yl)benzamide]",DC50,< 1 nM
"Cc1cc(O[C@H]2C(C)(C)[C@H](NC(=O)c3cnc(N4CCC(CN(CC(F)F)[C@H]5C[C@H](Oc6ccc7c(c6)CN(C6CCC(=O)NC6=O)C7=O)C5)CC4)nc3)C2(C)C)cc(C)c1C#N (some centres unmarked) [compound 97, N-((1r,3r)-3-(4-cyano-3,5-dimethylphenoxy)-2,2,4,4-tetramethylcyclobutyl)-2-(4-(((2,2-difluoroethyl)((1r,3r)-3-((2-(2,6-dioxopiperidin-3-yl)-1-oxoisoindolin-5-yl)oxy)cyclobutyl)amino)methyl)piperidin-1-yl)pyrimidine-5-carboxamide]",DC50,< 1 nM
